The target in one series is T1, Human AT1 (Homo sapiens, UniProt P30556).
T1 sequence (P30556 1-359): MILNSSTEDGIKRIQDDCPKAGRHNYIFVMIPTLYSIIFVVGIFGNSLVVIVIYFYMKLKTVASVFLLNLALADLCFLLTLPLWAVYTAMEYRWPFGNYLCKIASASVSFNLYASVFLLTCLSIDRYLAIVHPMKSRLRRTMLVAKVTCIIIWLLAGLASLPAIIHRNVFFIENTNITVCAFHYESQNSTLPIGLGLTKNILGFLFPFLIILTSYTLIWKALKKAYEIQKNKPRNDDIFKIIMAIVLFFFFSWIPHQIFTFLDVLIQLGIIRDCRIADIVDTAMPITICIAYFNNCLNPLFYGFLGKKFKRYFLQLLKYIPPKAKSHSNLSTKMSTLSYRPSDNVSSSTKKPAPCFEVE
Nature of the series: Angiotensin II AT1 receptor inhibition. The note with it: Human AT1, at 1.0 × 10^−8M drug, N = 2. Format: binding.

For series [1], the system named is Preglomerular vascular smooth muscle cells. The experiment in a line: O2- generation in Ang II-stimulated preglomerular vascular smooth muscle cells. The settings on record: cells stimulated by 10^−6 M Ang II. Type of series: cell-based. The source says: Preglomerular vascular smooth muscle cells were stimulated by 10^−6 M Ang II to produce O2^−.
The target in a further series is T2, AT2, angiotensin II (Homo sapiens, UniProt P50052).
T2 sequence (P50052 1-363): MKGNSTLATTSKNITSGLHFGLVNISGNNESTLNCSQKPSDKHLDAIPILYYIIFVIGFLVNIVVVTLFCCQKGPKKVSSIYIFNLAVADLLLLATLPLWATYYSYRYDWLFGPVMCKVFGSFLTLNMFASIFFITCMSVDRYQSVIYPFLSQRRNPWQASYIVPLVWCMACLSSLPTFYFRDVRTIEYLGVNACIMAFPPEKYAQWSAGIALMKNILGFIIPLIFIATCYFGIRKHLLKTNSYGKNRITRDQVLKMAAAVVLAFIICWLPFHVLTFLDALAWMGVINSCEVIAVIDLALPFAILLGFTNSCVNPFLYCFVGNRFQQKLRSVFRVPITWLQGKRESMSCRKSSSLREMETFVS
The experiment in a line: Angiotensin II AT2 receptor inhibition. Format: binding. The note with it: at 1.0 × 10^−9M drug, N = 2.

The conditions of series [2]: in vivo; cited from earlier work.

Consider one molecule from patent US20230338348A1, “RENIN-ANGIOTENSIN SYSTEM (RAS) MODULATORS FOR TREATMENT OF VIRAL INFECTIONS, PHARMACEUTICAL COMPOSITIONS INCLUDING THE SAME, AND METHODS OF TREATING USING THE SAME” (Trocar Pharma Inc., priority 2020, published 2023).

In turn, `CCCc1nc2c(C)cc(-c3nc4ccccc4n3C)cc2n1Cc1ccc(-c2ccccc2C(=O)O)cc1` [Telmisartan] showed an inhibition at 0.01 µM on Human AT1 of 52.7%. Also, the “inhibition of O2− generation (antioxidant action)” value in series [1] is “do not have antioxidant actions”. The molecule also returned an inhibition at 0.001 µM at AT2, angiotensin II of 6.37%. For the same molecule, the half-life in series [2] is 24 h.

As usually defined, the inhibition is the percentage by which the read-out fell short of the control. Read a low inhibition as a weak effect. Usually half-life stands for how long it takes for the measured level to halve.
